Assay [1] relates to MCF7. The assay can be described thus: Cytotoxicity against human MCF7 cells. The format is functional, cell-based.
Assay [2] concerns the target Histone deacetylase. The assay can be described thus: Inhibition of HDAC (unknown origin). In kind it is protein assay, Homo sapiens.
Assay [3] concerns the target Vascular endothelial growth factor receptor 2 (Homo sapiens, UniProt P35968). The assay can be described thus: Inhibition of VEGFR2 (unknown origin).
The target of assay [4] is Histone-lysine N-methyltransferase EZH2 (Homo sapiens, UniProt Q15910). Description: Inhibition of EZH2 (unknown origin).
Chain of Histone-lysine N-methyltransferase EZH2 (Q15910 whole entry): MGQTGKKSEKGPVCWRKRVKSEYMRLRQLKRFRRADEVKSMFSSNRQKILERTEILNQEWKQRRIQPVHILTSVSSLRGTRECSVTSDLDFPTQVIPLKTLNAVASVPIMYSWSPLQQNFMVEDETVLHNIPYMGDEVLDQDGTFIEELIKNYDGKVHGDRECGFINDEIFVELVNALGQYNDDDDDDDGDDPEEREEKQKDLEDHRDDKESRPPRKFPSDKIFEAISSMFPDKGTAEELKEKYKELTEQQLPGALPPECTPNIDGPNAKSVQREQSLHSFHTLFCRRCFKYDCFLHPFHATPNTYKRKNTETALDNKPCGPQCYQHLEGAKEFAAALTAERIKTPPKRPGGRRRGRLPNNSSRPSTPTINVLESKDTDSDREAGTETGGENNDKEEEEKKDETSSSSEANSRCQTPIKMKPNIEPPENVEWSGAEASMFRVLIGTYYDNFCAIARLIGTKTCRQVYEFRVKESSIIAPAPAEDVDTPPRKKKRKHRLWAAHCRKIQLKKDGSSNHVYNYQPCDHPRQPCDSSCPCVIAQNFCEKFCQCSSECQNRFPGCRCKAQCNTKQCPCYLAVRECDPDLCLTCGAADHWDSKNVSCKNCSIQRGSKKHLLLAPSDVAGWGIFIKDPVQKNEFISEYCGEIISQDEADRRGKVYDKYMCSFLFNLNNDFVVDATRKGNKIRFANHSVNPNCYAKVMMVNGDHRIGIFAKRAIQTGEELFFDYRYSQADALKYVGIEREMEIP
Assay [5] concerns the target T1, Histone deacetylase 1 (Homo sapiens, UniProt Q13547). The assay can be described thus: Inhibition of HDAC1 in human HeLa cell nuclear extract using Bos-Lys(acetyl)-AMC as substrate preincubated for 5 mins followed by substrate addition incubated for 30 mins. In kind it is cell-free.
The subject of assay [6] is Epidermal growth factor receptor (Homo sapiens), P00533 [UNDEFINED MUTATION]. Description: Inhibition of EGFR T790M (unknown origin) at 1 uM incubated for 40 mins in presence of ATP relative to control.
The target in assay [7] is Bcr/Abl fusion protein (Homo sapiens, UniProt P00519). Description: Inhibition of Bcr-Abl (unknown origin). The format is protein assay.
Chain of Bcr/Abl fusion protein (P00519 whole entry, the tested form may be a part): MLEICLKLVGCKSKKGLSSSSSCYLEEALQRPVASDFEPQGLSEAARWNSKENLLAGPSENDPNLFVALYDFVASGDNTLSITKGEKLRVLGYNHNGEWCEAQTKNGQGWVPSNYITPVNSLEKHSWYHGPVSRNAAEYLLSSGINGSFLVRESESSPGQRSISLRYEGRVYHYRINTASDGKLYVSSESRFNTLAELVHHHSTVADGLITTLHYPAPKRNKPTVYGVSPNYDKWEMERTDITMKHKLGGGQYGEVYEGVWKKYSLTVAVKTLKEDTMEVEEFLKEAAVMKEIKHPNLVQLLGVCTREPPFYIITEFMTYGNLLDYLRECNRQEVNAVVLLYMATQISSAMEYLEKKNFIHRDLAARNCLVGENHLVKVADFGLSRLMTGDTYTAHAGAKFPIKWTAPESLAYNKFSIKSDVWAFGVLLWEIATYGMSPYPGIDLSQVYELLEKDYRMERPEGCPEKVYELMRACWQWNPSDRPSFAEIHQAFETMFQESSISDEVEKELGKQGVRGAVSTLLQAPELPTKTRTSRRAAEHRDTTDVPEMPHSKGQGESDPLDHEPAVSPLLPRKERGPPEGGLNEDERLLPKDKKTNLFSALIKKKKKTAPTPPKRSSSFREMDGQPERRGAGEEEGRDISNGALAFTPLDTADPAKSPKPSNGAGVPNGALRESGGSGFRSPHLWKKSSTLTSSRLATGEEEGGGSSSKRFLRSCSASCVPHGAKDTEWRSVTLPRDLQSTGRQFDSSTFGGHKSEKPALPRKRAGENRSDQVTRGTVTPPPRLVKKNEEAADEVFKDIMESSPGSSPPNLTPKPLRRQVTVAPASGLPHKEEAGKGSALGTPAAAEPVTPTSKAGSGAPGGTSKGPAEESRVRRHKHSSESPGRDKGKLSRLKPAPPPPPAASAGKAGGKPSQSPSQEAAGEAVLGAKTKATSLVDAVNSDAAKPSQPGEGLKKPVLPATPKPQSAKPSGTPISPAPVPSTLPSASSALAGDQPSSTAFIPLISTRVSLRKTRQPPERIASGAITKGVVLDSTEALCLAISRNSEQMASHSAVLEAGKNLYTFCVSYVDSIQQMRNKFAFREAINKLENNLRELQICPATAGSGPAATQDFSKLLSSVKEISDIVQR
Chain of Bcr/Abl fusion protein (P11274 whole entry, further chain, the tested form may be a part): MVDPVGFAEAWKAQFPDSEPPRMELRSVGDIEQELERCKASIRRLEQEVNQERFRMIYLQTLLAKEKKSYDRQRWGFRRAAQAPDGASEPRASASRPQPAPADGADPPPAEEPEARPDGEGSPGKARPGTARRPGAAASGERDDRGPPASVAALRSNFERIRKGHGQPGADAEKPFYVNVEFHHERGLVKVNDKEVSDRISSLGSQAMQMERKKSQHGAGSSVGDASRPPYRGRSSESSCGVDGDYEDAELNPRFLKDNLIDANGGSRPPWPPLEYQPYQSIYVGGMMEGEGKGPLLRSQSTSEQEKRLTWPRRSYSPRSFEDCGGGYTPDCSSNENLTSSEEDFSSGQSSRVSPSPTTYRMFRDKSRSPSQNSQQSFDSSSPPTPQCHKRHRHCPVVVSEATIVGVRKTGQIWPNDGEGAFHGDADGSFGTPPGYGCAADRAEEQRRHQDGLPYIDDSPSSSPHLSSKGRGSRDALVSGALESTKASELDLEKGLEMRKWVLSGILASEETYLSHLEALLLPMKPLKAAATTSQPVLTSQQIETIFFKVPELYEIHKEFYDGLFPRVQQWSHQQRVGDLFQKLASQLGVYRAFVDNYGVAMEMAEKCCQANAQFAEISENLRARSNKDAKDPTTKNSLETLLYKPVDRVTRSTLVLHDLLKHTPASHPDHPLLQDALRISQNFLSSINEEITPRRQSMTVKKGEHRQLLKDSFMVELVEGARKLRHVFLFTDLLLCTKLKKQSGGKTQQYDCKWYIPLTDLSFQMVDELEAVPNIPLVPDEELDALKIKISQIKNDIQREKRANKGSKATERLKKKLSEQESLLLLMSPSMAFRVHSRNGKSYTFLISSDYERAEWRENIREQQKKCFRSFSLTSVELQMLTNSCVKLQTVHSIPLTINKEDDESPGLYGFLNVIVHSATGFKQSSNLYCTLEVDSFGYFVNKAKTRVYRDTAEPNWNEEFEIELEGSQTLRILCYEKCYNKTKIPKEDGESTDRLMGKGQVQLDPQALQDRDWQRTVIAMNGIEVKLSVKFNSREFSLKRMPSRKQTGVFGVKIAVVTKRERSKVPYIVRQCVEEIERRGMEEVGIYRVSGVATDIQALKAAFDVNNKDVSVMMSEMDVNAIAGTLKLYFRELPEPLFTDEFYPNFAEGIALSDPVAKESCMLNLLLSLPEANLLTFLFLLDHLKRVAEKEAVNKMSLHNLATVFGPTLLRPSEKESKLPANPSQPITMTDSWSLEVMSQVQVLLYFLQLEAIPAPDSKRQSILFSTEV
For assay [8], the system named is K562. Description: Cytotoxicity against human K562 cells.
Assay [9] relates to DU-145. The assay can be described thus: Cytotoxicity against human DU-145 cells.
Assay [10] addresses T1, Histone deacetylase 1. The assay can be described thus: Inhibition of HDAC1 (unknown origin).
Assay [11] deals with Tubulin. Description: Inhibition of tubulin polymerization (unknown origin) incubated for 15 mins in presence of GTP by fluorescence-based tubulin polymerization assay kit. The format is protein-complex assay, Homo sapiens.
In assay [12] the test system is HCT-116. The assay can be described thus: In vivo antitumor activity against human HCT-116 cells xenografted in BALB/c nude mouse assessed as tumor growth inhibition at 150 mg/kg, po relative to control. The format is functional. Particulars: read-out: TGI. Background: Xenograft models place foreign cells or tissue in a host animal.
Assay [13] concerns the target Epidermal growth factor receptor (Homo sapiens, UniProt P00533). The assay can be described thus: Inhibition of EGFR (unknown origin).
Assay [14] has as its system DU-145. The assay can be described thus: Antiproliferative activity against human DU-145 cells incubated for 48 hrs by Sulforhodamine B staining method. Particulars: DU-145, 48 h. The format is functional, cell-based. Background: In SRB staining, fixed cells bind dye roughly in proportion to their protein.
Assay [15] deals with Panel NCI-60 (60 carcinoma cell lines). Description: Cytotoxicity against human Panel NCI-60 (60 carcinoma cell lines). The format is functional, cell-based.
Assay [16] relates to SMMC-7721. Description: Cytotoxicity against human SMMC-7721 cells. In kind it is functional, cell-based.
Assay [17] has as its target cGMP-specific 3',5'-cyclic phosphodiesterase (Homo sapiens, UniProt O76074). Description: Inhibition of PDE5 (unknown origin) incubated for 1.5 hrs by IMAP fluorescence polarization phosphodiesterase evaluation assay. (In fluorescence polarisation assays a small probe gives low polarisation when free and higher when bound to something large.)

Bounds are passed on as bounds.

In general, IC50 refers to the concentration that gives 50% inhibition. A word on the inhibition: it is the change of the read-out against control, counted positive when it falls.

T1 sequence (Q13547 whole entry): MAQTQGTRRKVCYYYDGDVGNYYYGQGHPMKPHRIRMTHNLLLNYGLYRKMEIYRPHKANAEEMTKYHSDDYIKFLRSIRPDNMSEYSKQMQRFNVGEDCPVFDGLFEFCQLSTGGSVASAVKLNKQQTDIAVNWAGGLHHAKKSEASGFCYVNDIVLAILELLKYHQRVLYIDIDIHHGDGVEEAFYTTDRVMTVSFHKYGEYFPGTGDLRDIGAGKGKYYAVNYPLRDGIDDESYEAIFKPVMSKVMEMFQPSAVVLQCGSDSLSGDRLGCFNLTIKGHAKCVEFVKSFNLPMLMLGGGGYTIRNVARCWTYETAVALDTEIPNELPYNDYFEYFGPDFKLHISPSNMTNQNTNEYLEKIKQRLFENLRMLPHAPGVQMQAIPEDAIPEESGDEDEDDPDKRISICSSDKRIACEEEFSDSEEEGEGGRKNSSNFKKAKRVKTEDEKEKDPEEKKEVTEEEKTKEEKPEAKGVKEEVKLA
Chain of Vascular endothelial growth factor receptor 2 (P35968 whole entry): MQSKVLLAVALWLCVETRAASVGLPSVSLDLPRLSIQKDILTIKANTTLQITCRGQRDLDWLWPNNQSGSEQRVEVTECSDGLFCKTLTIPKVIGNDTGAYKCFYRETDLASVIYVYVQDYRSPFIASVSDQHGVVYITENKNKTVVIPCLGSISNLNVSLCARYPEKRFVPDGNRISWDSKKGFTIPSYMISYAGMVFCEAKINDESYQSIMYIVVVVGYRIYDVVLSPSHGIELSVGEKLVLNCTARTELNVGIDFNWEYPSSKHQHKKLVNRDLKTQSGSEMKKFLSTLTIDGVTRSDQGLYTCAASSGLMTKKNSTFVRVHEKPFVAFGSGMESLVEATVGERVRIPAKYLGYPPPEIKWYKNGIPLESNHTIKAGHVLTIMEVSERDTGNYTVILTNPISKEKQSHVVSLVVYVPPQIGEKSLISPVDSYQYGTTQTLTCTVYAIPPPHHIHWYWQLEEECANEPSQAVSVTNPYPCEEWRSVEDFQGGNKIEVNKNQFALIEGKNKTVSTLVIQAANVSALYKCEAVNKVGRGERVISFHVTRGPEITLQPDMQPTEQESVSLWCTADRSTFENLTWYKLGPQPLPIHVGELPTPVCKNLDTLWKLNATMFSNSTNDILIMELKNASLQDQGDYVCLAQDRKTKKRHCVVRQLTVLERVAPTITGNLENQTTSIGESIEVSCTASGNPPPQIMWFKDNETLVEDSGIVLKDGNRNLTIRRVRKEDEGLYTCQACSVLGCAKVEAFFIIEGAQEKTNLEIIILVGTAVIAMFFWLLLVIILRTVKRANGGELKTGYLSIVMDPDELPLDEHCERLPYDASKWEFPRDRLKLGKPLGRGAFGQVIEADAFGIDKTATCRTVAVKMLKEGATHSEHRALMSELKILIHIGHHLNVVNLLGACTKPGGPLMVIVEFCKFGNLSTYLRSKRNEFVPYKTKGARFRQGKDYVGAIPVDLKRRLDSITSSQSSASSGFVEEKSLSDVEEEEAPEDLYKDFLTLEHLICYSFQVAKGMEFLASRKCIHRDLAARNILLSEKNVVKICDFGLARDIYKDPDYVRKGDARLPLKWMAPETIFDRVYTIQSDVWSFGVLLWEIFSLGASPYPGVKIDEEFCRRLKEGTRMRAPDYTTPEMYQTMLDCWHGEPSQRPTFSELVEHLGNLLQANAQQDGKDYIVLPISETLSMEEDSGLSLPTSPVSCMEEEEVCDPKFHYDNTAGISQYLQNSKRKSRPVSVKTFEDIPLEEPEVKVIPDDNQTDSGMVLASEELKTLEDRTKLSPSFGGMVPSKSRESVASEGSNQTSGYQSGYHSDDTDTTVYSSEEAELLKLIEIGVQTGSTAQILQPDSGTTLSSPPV

Consider `COc1cc2ncnc(Nc3ccc(Cl)cc3Cl)c2cc1OCCCCCCC(=O)NO`, for which the IC50 in assay [1] was determined as 12 µM; in assay [2] it was 0.0028 µM; in assay [3], 0.084 µM.
With `Cc1cc(C)c(CNC(=O)c2cnn(-c3ccccc3)c2C)c(=O)[nH]1`, in assay [4], half-maximal inhibition (IC50) required 5.78 µM.
On to `Cn1cc(-c2ccnc(Nc3ccc(NC(=O)CCCCCC(=O)NO)cc3)n2)c2ccccc21`, for which the IC50 in assay [5] was found to be 0.023 µM. Besides, the inhibition in assay [6] came to 35%.
`COc1cc2ncnc(Nc3ccc(Br)cc3)c2cc1OCCCCCCC(=O)NO` showed an IC50 in assay [1] of 0.88 µM.
Take `CCN1CCN(c2cc(Nc3ncc(C(=O)Nc4ccc(F)cc4N)s3)nc(C)n2)CC1`: the IC50 in [7] was 17.8 µM; in assay [8], 2.62 µM; in assay [9], 0.6 µM; in assay [10] it was 0.81 µM.
As for `C[C@H]1COc2c(N3CCN(C)CC3)c(F)cc3c(=O)c(C(=O)OCc4cn(CCCCCCCC(=O)NO)nn4)cn1c23`, the IC50 in assay [11] turned out to be 6.63 µM.
As for `CN1c2ccccc2C(=O)N2[C@H](C(=O)Nc3ccc(C(=O)Nc4ccccc4N)cc3)Cc3c([nH]c4ccccc34)[C@@H]12`, in [12], the inhibition in vivo at 150 mg/kg was found to be 75.2%.
As to `CCN1CCN(c2cc(Nc3ncc(C(=O)Nc4ccccc4N)s3)nc(C)n2)CC1`, the IC50 in assay [7] was 21.2 µM; in [8], 2.56 µM; in assay [9], 5.79 µM; in [10], 0.15 µM.
As for `CNC(=O)c1cc(Oc2ccc(NC(=O)c3ccc(Cl)c(C(F)(F)F)c3)cc2)ccc1N`, the IC50 in [2] was found to be 1.17 µM.
Consider `C[C@H]1COc2c(N3CCN(C)CC3)c(F)cc3c(=O)c(C(=O)OCc4cn(CCCCCC(=O)NO)nn4)cn1c23`, for which the IC50 in assay [11] turned out to be 5.45 µM.
`CNC(=O)c1cc(Oc2ccc(NC(=O)c3ccccc3)cc2)ccc1N` had an IC50 in assay [2] of 6.19 µM.
Still for that read-out and setting: the same measure for `CN(C)C(=O)c1cc(Oc2ccc(NC(=O)c3ccc(Cl)c(C(F)(F)F)c3)cc2)ccc1N`: above 1000 µM.
For the molecule `O=C(CCCCCCC(=O)Nc1ccccc1)NO` [VORINOSTAT], the results for the IC50 in [3], in assay [13] and in [14] were above 10 µM, 0.012 µM and 0.79 µM, respectively.
Turning to `Cn1c(CCCC(=O)O)nc2cc(N(CCCl)CCCl)ccc21` [BENDAMUSTINE], in assay [15], 0.077 µM corresponded to half-maximal inhibition (IC50).
Molecule `COc1cc(NC(=O)CCCCCC(=O)NO)ccc1Nc1nccc(-c2cn(C)c3ccccc23)n1` showed an IC50 in [5] of 0.121 µM. Moreover, in assay [6], the inhibition worked out at 13%.
For the molecule `CNC(=O)c1cc(Oc2ccc(NC(=O)c3cccc(N)c3)cc2)ccc1N`, the IC50 in assay [2] is 1.03 µM.
Consider `Nc1ccccc1NC(=O)c1ccc(CNC(=O)OCc2cccnc2)cc1` [ENTINOSTAT], for which the IC50 in assay [8] came to 21.3 µM; in [9], 3.75 µM.
On the same counts, the results for `Cc1nc(Nc2ncc(C(=O)Nc3c(C)cccc3Cl)s2)cc(N2CCN(CCO)CC2)n1` [DASATINIB] are 7.44 µM and 2.43 µM.
`CC(C)=CCC/C(C)=C\CC/C(C)=C\CSc1ccccc1C(=O)O` registered an IC50 in assay [16] of 66 µM.
In the case of `CC(C)=CCC/C(C)=C\CC/C(C)=C\CSc1ccccc1C(=O)NCCCCC(=O)NO`, the IC50 came to 4.93 µM in [16] and 0.00058 µM in [10].
Consider `O=C(O)CCN1CC(=O)N2[C@H](CC3c4ccccc4NC3[C@H]2c2ccc(Br)cc2)C1=O` (stereo partly specified), for which, in [17], the IC50 is 0.002 µM.

(Values after ChEMBL document CHEMBL5214883, “Comprehensive review for anticancer hybridized multitargeting HDAC inhibitors” (Eur J Med Chem, 2021).)
